# Paper PMC12473906, “Comparing the Altis RepliGut Organoid System to MDCK Monolayers in Predicting the Oral Absorption of Lenalidomide” (Pharmaceutics, 2025)
# Where two headings read alike, the source gives them in different places.
# Assays:
# [1] = test system: MDCK cells and other traditional in vitro systems; conditions: cited from earlier work
# [2] = RepliGut human jejunal organoid-derived monolayer permeability assay; conditions: human
# [3] = test system: BCRP; design: method as in PMID 24627218; conditions: vesicles with BCRP; cited from earlier work
# [4] = Lenalidomide pharmacokinetic study in rats (IV and oral); assay type: in vivo, Sprague Dawley rats; conditions: for AUC / Cmax / Tmax / half-life / bioavailability: plasma; for bioavailability: po
# Description: All animal pharmacokinetic experiments were carried out by WuXi (Shanghai, China). Animals were kept on a light-dark cycle and allowed to eat and drink ad libitum. Animals receiving oral doses were fasted overnight. Animals’ condition and behavior were monitored throughout the experiment for signs of pain and distress. We utilized only male rats because similar pharmacokinetics in both genders was previously reported and no dosage adjustment is recommended based on gender, in order to reduce the number of animals required.
# Male Sprague Dawley rats (230–280 g) (n = 3 per group) were administered lenalidomide (0.1, 1, 2, 10, and 50 mg/kg). The vehicles for oral and intravenous dosing were 0.6% methylcellulose A15 + 0.2% Tween 80 in water and 10% DMSO + 60% propylene glycol + 30% water, respectively. Serum samples were obtained prior to administration (predose) and at 0.033, 0.083, 0.25, 0.5, 1, 2, 4, and 6 h postdose from the IV group and at 0.083, 0.25, 0.5, 1, 2, 4, 8, and 24 h from the oral groups. Approximately 250 μL was collected at each time point via a catheter at the femoral artery from each rat into prechilled commercial K2-EDTA tubes on wet ice. Samples were centrifuged (3200× g for 10 min at 4 °C) within one hour of collection and frozen at −60 °C or lower before analysis. Approximately 5 mL of whole blood was collected from additional blank animals into prechilled commercial K2-EDTA tubes on wet ice and pooled to serve as blank plasma for bio-analysis. […] Animals were kept in metabolic cages to collect urine, feces, and bile at different periods after dosing. Wet ice was added during the whole collection process for urine and feces. Feces was homogenized in water, and the urine samples and feces homogenates were kept at −70 ± 10 °C until LC-MS/MS analysis. Pharmacokinetic parameters were calculated by non-compartmental methods, as described in Gibaldi and Perrier, using Phoenix® WinNonlin® version 8.5 (Certara L.P., Radnor, PA, USA).
# The human equivalent dose (HED) was calculated based on the previously reported AUC after a typical dose in humans. The percentage of lenalidomide excreted in the feces/urine in 24 h was calculated by multiplying the fecal weight/urine volume by its measured lenalidomide concentration and dividing by the total amount of lenalidomide administered.(2) Percentage excreted in feces=100 · Feces weight ·Feces concentration /Dose volume ·Dose concentration (3) Percentage excreted in urine=100 · Urine volume ·Urine concentration /Dose volume ·Dose concentration
# For the in vivo study, mass spectrometry detection of lenalidomide was accomplished using a SCIEX QTrap 6500+. Transition pairs used for quantification were as follows: lenalidomide (260.1 → 149.1 Da), labetalol (329.1 → 294.1 Da), indomethacin (357.9 → 139.0 Da), and loperamide (477.1 → 266.2 Da). Separation was achieved using a Waters Acquity UPLC system.
# For urine samples, mobile phase A was 0.1% NH4OH and 2 mM NH4OAc in water/acetonitrile (v:v, 95:5), and mobile phase B was 0.1% NH4OH and 2 mM NH4OAc in acetonitrile/water (v:v, 95:5). Mobile phases were operated at the following gradient: initial, 1% B; 0–0.2 min, 1% B; 0.2–1, 30% B; 1–1.5, 100% B; 1.5–1.9, 100% B; 1.9–1.91, 1% B; and 1.91–2, 1% B. The column used was a Waters Acquity UPLC BEH C18 1.7 μm (2.1 × 50 mm) with flow rate of 0.6 mL/min and column oven temperature of 60 °C.
# For plasma and feces samples, mobile phase A was 0.1% formic acid and 2 mM HCOONH4 in water, and mobile phase B was 0.1% formic acid and 2 mM HCOONH4 in acetonitrile/water (v:v, 95:5). Mobile phases were operated at the following gradient: initial, 1% B; 0–0.3 min, 1% B; 0.3–1.5, 30% B; 1.5–2.1, 95% B; 2.1–2.4, 95% B; 2.4–2.41, 1% B; and 2.41–2.5, 1% B. The column used was a Waters Acquity UPLC HSS T3 1.8 μm (2.1 × 50 mm) with a flow rate of 0.6 mL/min and a column oven temperature of 45 °C.
# For in vivo studies, feces samples were homogenized at a ratio of 1 g feces to 9 mL buffer. […]
# [5] = pH 7.4, with elacridar + Ko143 (concentrations not given)
# [6] = Sprague Dawley, rat, male rats, 0.1 mg/kg PO
# [7] = Sprague Dawley, rat, male rats, 1 mg/kg IV
# [8] = Sprague Dawley, rat, male rats, 2 mg/kg PO
# [9] = Sprague Dawley, rat, male rats, 10 mg/kg PO
# [10] = Sprague Dawley, rat, male rats, 50 mg/kg PO
smiles,measurement,setting,value
Nc1cccc2c1CN(C1CCC(=O)NC1=O)C2=O (centres unmarked) [Lenalidomide],BCS class,[1],3
same,In vitro permeability,[1],Low
same,Papp A→B at 3 h,[2]; pH 7.4,0.58 ×10⁻⁶ cm/s
same,Papp B→A at 3 h,[2]; pH 7.4,2.64 ×10⁻⁶ cm/s
same,Papp at 3 h,[2]; pH 7.4,~0.6 ×10⁻⁶ cm/s
same,"Papp at 3 h, 500 µM",[2]; pH 7.4,0.58 ×10⁻⁶ cm/s
same,efflux ratio at 3 h,"[2]; pH 7.4, Efflux Ratio, human jejunal organoids, Papp B to A/Papp A to B",4.6
same,efflux ratio at 3 h,"[2]; pH 7.4, efflux ratio, intestinal organoids, all concentrations",3 to 4
same,efflux ratio at 3 h,"[2]; pH 7.4, with elacridar 5 µM + Ko143 1 µM, Efflux Ratio, human jejunal organoids + elacridar (5 μM) + Ko143 (1 μM)",~1
same,Papp A→B at 3 h,[2]; [5],0.52 ×10⁻⁶ cm/s
same,Papp B→A at 3 h,[2]; [5],0.8 ×10⁻⁶ cm/s
same,BCRP substrate,[3],not a BCRP substrate
same,dose excreted,"[4]; Sprague Dawley, rat, feces, male rats, 0.1 mg/kg PO, read-out: Fecal Recovery",12%
same,dose excreted,"[4]; Sprague Dawley, rat, feces, male rats, 1 mg/kg IV, 24 h, read-out: Fecal Recovery",3.2%
same,dose excreted,"[4]; Sprague Dawley, rat, feces, male rats, 2 mg/kg PO, read-out: Fecal Recovery",12%
same,dose excreted,"[4]; Sprague Dawley, rat, feces, male rats, 10 mg/kg PO, read-out: Fecal Recovery",10%
same,dose excreted,"[4]; Sprague Dawley, rat, feces, male rats, 50 mg/kg PO, read-out: Fecal Recovery",16%
same,AUC,[4]; [6],0.29 µM·h
same,Cmax,[4]; [6],0.2 µM
same,Tmax,[4]; [6],25.2 min
same,half-life,[4]; [6],52.2 min
same,Cmax,[4]; [7],4.9 µM
same,Tmax,[4]; [7],1.8 min
same,half-life,[4]; [7],72 min
same,AUC,"[4]; Sprague Dawley, rat, male rats, 1 mg/kg IV, serum, n=3",2.34 µM·h
same,AUC,[4]; [8],5.44 µM·h
same,Cmax,[4]; [8],1.6 µM
same,Tmax,[4]; [8],19.8 min
same,half-life,[4]; [8],84 min
same,AUC,[4]; [9],15.4 µM·h
same,Cmax,[4]; [9],8.4 µM
same,Tmax,[4]; [9],25.2 min
same,half-life,[4]; [9],84 min
same,AUC,[4]; [10],79.4 µM·h
same,Cmax,[4]; [10],29 µM
same,Tmax,[4]; [10],30 min
same,half-life,[4]; [10],162 min
same,dose excreted,"[4]; Sprague Dawley, rat, urine, male rats, 0.1 mg/kg PO, read-out: Urinary Recovery",47%
same,dose excreted,"[4]; Sprague Dawley, rat, urine, male rats, 1 mg/kg IV, 24 h, unchanged drug, read-out: Urinary Recovery",87%
same,dose excreted,"[4]; Sprague Dawley, rat, urine, male rats, 2 mg/kg PO, read-out: Urinary Recovery",45%
same,dose excreted,"[4]; Sprague Dawley, rat, urine, male rats, 10 mg/kg PO, read-out: Urinary Recovery",48%
same,dose excreted,"[4]; Sprague Dawley, rat, urine, male rats, 50 mg/kg PO, read-out: Urinary Recovery",43%
same,BA,"[4]; male rats, 0.1 mg/kg PO",122%
same,BA,"[4]; male rats, 1 mg/kg IV (reference)",100%
same,BA,"[4]; male rats, 2 mg/kg PO",116%
same,BA,"[4]; male rats, 10 mg/kg PO",66.0%
same,BA,"[4]; male rats, 50 mg/kg PO",67.9%
same,dose excreted,"[4]; male, Sprague Dawley, rat, feces, rats, across oral doses, read-out: fecal recovery",~12%
same,bioavailability,"[4]; male, Sprague Dawley, rat, rats, all doses",68 to 120%
same,bioavailability,"[4]; male, Sprague Dawley, rat, rats, low doses",> 100%
same,Tmax,"[4]; male, Sprague Dawley, rat, rats, across oral doses",~30 min
same,CL renal,"[4]; male, Sprague Dawley, rat, urine and plasma, iv, 1 mg/kg, read-out: CLR (renal clearance)",24 mL/min/kg
same,dose excreted,"[4]; male, Sprague Dawley, rat, urine, rats, all oral doses, read-out: Urinary recovery",~45%
same,Human Equivalent Dose,[4]; rat 2 mg/kg PO,~26 mg
same,Human Equivalent Dose,[4]; rat 10 mg/kg PO,~73 mg
same,Human Equivalent Dose,[4]; rat 50 mg/kg PO,~376 mg
